Data taken from patent US20060004037A1, “Novel tricyclic compounds and related methods of treatment” (TransForm Pharmaceuticals, Inc., priority 2004, published 2006).
Converted amounts (≈) assume the structure as drawn. Structures can show the parent of a compound that is named as a salt. Values belong to the compound of their own block, whether it stands above or below them.

Experiments:
[1] = Hygroscopicity (VTI); format: physicochemical; details: free base form
[2] = Caco-2 permeability; format: in vitro ADME; details: human, Caco-2, free base form; for efflux ratio: read-out: B-A/A-B ratio
[3] = test system: Caco-2; assay: Caco-2 permeability; format: in vitro ADME; details: free base form
[4] = Dynamic vapor sorption; format: physicochemical
[5] = Single excipient solubility screen; format: physicochemical
Text: A single excipient screen was completed in an attempt to find an appropriate excipient for a liquid formulation of LSN 487355. […]

[6] = pKa; format: physicochemical; details: free base form
[7] = Solubility in various solvents/solubilizing mixtures; format: physicochemical
Text: The solubility of LSN 487355 in a variety of vehicles is illustrated in Table III.

Hygroscopicity (VTI) [1]: Non-hygroscopic
Papp [2]: 7.4 ×10⁻⁶ cm/s
efflux ratio [2]: 2.7
Permeability class [3]: Borderline high
SMILES: Cc1onc2c1c(=O)n([C@H]1CCC[C@@H](NC(=O)[C@@H](O)c3ccc(F)nc3)C1)c1cccc(Cl)c21 [LSN 509207]

Moisture sorption isotherm ([4]; dynamic vapor sorption): significant moisture sorption isotherm
Relative humidity at which deliquescence begins ([4]; dynamic vapor sorption): 80-90 % RH
Crystallinity in dynamic vapor sorption ([4]; equilibrated under flowing nitrogen (0% RH)): loss of crystallinity
solubility ([5]; oil or lipid, excipient labrasol (FIG. 13)): ≥ 20000 µg/mL
solubility ([5]; organic solvent or mixture, excipient PEG-600 (FIG. 13)): ≥ 20000 µg/mL
SMILES: Cc1onc2c1c(=O)n([C@H]1CCC[C@@H](CNC(=O)c3ccc(F)nc3)C1)c1cccc(Cl)c21 [LSN 487355 phosphate salt]

Hygroscopicity (VTI) [1]: Non-hygroscopic
pKa [6]: 3.77
Papp [2]: 7.9 ×10⁻⁶ cm/s
efflux ratio [2]: 2.3
Permeability class [3]: Borderline high
solubility ([7]; 4% DMSO in deionized water, kinetic from dmso stock, 4% DMSO, compound dissolved in solvent first, then deionized water added): 2 µg/mL (≈ 0.00427 mM)
solubility ([7]; 5% N-methyl-2-pyrrolidone in deionized water, aqueous with cosolvent or surfactant or cyclodextrin, kinetic from dmso stock, 5% N-methyl-2-pyrrolidone, compound dissolved in solvent first, then deionized water added): 4 µg/mL (≈ 0.00853 mM)
solubility ([7]; 10% DMSO in deionized water, aqueous with cosolvent or surfactant or cyclodextrin, kinetic from dmso stock, 10% DMSO, compound dissolved in solvent first, then deionized water added): 4 µg/mL (≈ 0.00853 mM)
solubility ([7]; 10% N-methyl-2-pyrrolidone in deionized water, aqueous with cosolvent or surfactant or cyclodextrin, kinetic from dmso stock, 10% N-methyl-2-pyrrolidone, compound dissolved in solvent first, then deionized water added): 30 µg/mL (≈ 0.064 mM)
solubility ([7]; Capmul PG8, oil or lipid): 12000 to 15000 µg/mL (≈ 25.6 to 32 mM)
solubility ([7]; DMA, organic solvent or mixture): 208000 to 416000 µg/mL (≈ 444 to 887 mM)
solubility ([7]; Ethanol, organic solvent or mixture): 1400 µg/mL (≈ 2.99 mM)
solubility ([7]; Ethyl Oleate, oil or lipid): < 2000 µg/mL
solubility ([7]; Ethyl acetate, organic solvent or mixture): 3 µg/mL (≈ 0.0064 mM)
solubility ([7]; Glycofurol, organic solvent or mixture): > 2000 µg/mL
solubility ([7]; Labrafac Hydro WL 219, oil or lipid): > 2000 µg/mL
solubility ([7]; Labrafac Lipophile WL 1349, oil or lipid): < 2000 µg/mL
solubility ([7]; Labrafil M1944CS, oil or lipid): < 2000 µg/mL
solubility ([7]; Labrafil M2125CS, oil or lipid): < 2000 µg/mL
solubility ([7]; Labrasol, oil or lipid): 4000 to 5000 µg/mL (≈ 8.53 to 10.7 mM)
solubility ([7]; NMP, organic solvent or mixture): > 563000 µg/mL
solubility ([7]; Olive oil, oil or lipid): < 2000 µg/mL
solubility ([7]; PEG 300, organic solvent or mixture): > 2000 µg/mL
solubility ([7]; Phosphal 50 PG, oil or lipid): > 2000 µg/mL
solubility ([7]; Phosphal 53 MCT, oil or lipid): > 2000 µg/mL
solubility ([7]; Propylene Glycol, organic solvent or mixture): < 2000 µg/mL
solubility ([7]; Safflower oil, oil or lipid): < 2000 µg/mL
solubility ([7]; Soybean oil, oil or lipid): < 2000 µg/mL
solubility ([7]; organic solvent or mixture, DMSO, measured visually at about 50 mg/mL, all compound dissolved): ≥ 51000 µg/mL
solubility ([7]; organic solvent or mixture, N-methyl-2-pyrrolidone, measured visually at about 50 mg/mL, all compound dissolved): ≥ 52000 µg/mL
SMILES: Cc1onc2c1c(=O)n([C@H]1CCC[C@@H](CNC(=O)c3ccc(F)nc3)C1)c1cccc(Cl)c21 [LSN 487355]
